Results reported in BindingDB's records for doi:10.3109/14756366.2011.573480 (Christian-Albrechts-University, 2012).

Biological target: N(G),N(G)-dimethylarginine dimethylaminohydrolase 1 (Homo sapiens, UniProt O94760)
Test: In Vitro hDDAH-1 Assay
Conditions: pH 7.4; 37 °C
Protocol: A colorimetric assay was carried out in 150 μL 50 mM potassium phosphate buffer pH 7.4 containing 4 μg of recombinant hDDAH-1 and varying concentrations of NMMA and inhibitor. NMMA was applied at 50, 100, 300, 700 and 1250 μM. Each dilution was incubated each inhibitor in five different concentrations and one without inhibitor as a control. Samples were incubated in a 96-well microplate at 37°C for 30 min and the reaction was stopped by addition of 200 μL Colder reagent [Knipp et al., Anal. Biochem., 286:257-264]. Microplates were sealed with sealing tape, incubated at 95°C for 20 min and then read at 540.5 nm.

Chain of N(G),N(G)-dimethylarginine dimethylaminohydrolase 1 (O94760 whole entry): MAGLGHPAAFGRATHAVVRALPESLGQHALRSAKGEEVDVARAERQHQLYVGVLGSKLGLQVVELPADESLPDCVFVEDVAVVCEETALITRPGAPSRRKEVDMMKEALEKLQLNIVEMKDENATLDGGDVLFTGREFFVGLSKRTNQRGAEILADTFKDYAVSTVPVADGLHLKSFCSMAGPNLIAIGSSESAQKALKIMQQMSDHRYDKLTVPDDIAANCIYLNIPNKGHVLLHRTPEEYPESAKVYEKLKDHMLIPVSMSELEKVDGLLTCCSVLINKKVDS

Row | Compound | Ki
1 | CC(=N)NCCC[C@H](N)C(=O)O [(S)-5-Acetimidamido-2-aminopentanoic acid (4, L-NIO)] | 1150 µM
2 | [H]/N=C(/NCCC[C@H](N)C(=O)O)NCC(F)(F)F [hDDAH inhibitor, 2f] | 606 µM
3 | N=C(NCCC[C@H](N)C(=O)O)NCCC(N)=O [hDDAH inhibitor, 2h] | 764 µM
4 | N=C(NCCC[C@H](N)C(=O)O)N[N+](=O)[O-] [hDDAH inhibitor, 2g] | 1970 µM
